Results reported in patent publication US8455033B2, “Taste potentiator compositions and edible confectionery and chewing gum products containing same” (Kraft Foods Global Brands LLC, priority 2005, dated 2013).

What was measured:
[1] = tested on: expert panel members; experiment: Sucrose Equivalent Value (SEV): expert panel matches the test solution to stock sucrose solutions; format: in vivo; details: for effect on sweetness of the sucrose solution (dose response curve): 0 to 1000 ppm in pH 3.2 buffered 5% sucrose; for effect on sweetness (SEV) of sucrose solutions: 500 ppm in pH 3.2 buffered 0%, 3%, 5%, 7% and 9% sucrose; for SEV (%): 500 ppm of a single potentiator in pH 3.2 buffered 5% sucrose
Description: One method of measuring the perceived sweetness of a solution is to match it with a stock sucrose solution of known concentration. In the present experiments, the compound of interest is added at a predetermined concentration to a pH 3.2 buffered solution containing 5% sucrose. A number of expert panel members then taste the solution and compare it to a battery of stock sucrose solutions ranging from 3% to 15% at increments of 1%. Each panel member decides which sucrose solution is equisweet with the solution containing the compound of interest. The mean value is then reported as the SEV. Results are reported to 1 decimal place.
In accordance with this methodology, 3-HB was added to a pH 3.2 buffered solution containing 5% sucrose to produce solutions containing from 0 to 1000 ppm 3-HB in 100 ppm increments. […] From FIG. 1 it is apparent that as the dosage of 3-HB increases so does the sweetness of the resultant solution. However the effect is non-linear with each incremental addition having a diminishing effect. The maximum sweetness attainable would appear to be about 7.9% SEV (based on a 5% sucrose solution).
The same methodology as described in Example 7 was repeated with 2,4-DHB in place of 3-HB, to produce the dose response curve for 2,4-DHB (FIG. 2). […] The maximum attainable sweetness would appear to be about 6.7% SEV (based on a 5% sucrose solution).
500 ppm of a sweetener potentiator was added to a pH 3.2 buffered solution containing 5% sucrose and the SEV of the resultant solution determined. […]
pH 3.2 buffered solutions were prepared containing 0%, 3%, 5%, 7% and 9% sucrose. 500 ppm of 2,4-DHB acid, 500 ppm of the sodium salt of 2,4-DHB and 500 ppm of the potassium salt of 2,4-DHB were added individually to each of the sucrose solutions. The SEV for each of the solutions was then determined.
500 ppm of 3-aminobenzoic acid and 500 ppm of 4-aminobenzoic acid were individually added to separate pH 3.2 buffered solutions containing 5% sucrose and the SEVs of the resultant solutions were determined. The SEV of 3-aminobenzoic acid was about 7%, i.e., increased the sweetness intensity of 5% sucrose to about 7%. The SEV of 4-aminobenzoic acid was about 5.5-6%, i.e., increased the sweetness intensity of 5% sucrose to about 5.5-6%.

[2] = 0.2% added to a 5% sucrose solution; Canadian Patent No. 1208966; cited from earlier work

Row | SMILES | effect on sweetness of the sucrose solution (dose response curve) [1] | effect on sweetness (SEV) of sucrose solutions [1] | SEV (%) [1] | other results
1 | O=C(O)c1ccc(O)cc1O [2,4-DHB, 2,4-dihydroxybenzoic acid] | enhances the sweetness of the sucrose solution | enhances the sweetness of the sucrose solution in every case |  | effect on sweetness of sucrose solution [2]: increase in sweetness
2 | O=C(O)c1cc(O)c(O)c(O)c1 [3,4,5-THB, 3,4,5-tryhydroxybenzoic acid] |  |  | 5.1% | 
3 | O=C(O)c1ccc(O)c(O)c1 [3,4-DHB, 3,4-dihydroxybenzoic acid] |  |  | 6.4% | 
4 | O=C(O)c1cccc(O)c1 [3-HB, 3-hydroxybenzoic acid] | enhances the sweetness of the sucrose solution |  |  | 
5 | O=C([O-])c1ccc(O)cc1O.[K+] [potassium salt of 2,4-DHB] |  | enhances the sweetness of the sucrose solution in every case |  | 
6 | O=C([O-])c1ccc(O)cc1O.[Na+] [sodium salt of 2,4-DHB] |  | enhances the sweetness of the sucrose solution in every case |  | 
